Source: US20250388605A1, “HETEROBIFUNCTIONAL COMPOUNDS AND METHODS OF TREATING DISEASE” (Halda Therapeutics OpCo, Inc., priority 2022, published 2025)

What was measured:
[1] = test system: T-Rex 293 cell line SC3 cells having increased expression of androgen receptor protein due to exposure to doxycycline; experiment: Cellular growth inhibition, T-Rex 293 SC3 cells with doxycycline (increased androgen receptor expression), CellTiter-Glo; type: cell-based; conditions: T-Rex 293 SC3 cells with 10 ng/mL doxycycline (increased androgen receptor expression), 72 hours, CellTiter-Glo 2.0
How it was run: (§1)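 Growth inhibition is measured in an inducible AR-expressing T-Rex 293 clone, SC3, cultured with or without 10 ng/mL doxycycline in hormone-depleted medium. Test compounds are applied for 72 hours. GI50 values derive from CellTiter-Glo 2.0 signal fitted by four-parameter regression.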

[2] = test system: T-Rex 293 cell line SC3 cells lacking increased expression of androgen receptor protein; experiment: Cellular growth inhibition, T-Rex 293 SC3 cells without doxycycline (no increased androgen receptor expression), CellTiter-Glo; type: cell-based; conditions: T-Rex 293 SC3 cells not exposed to doxycycline (no increased androgen receptor expression), 72 hours
How it was run: as §1

VCaP cells = experiment: Cellular growth inhibition assay for VCaP cells, CellTiter-Glo; type: cell-based, human; conditions: 72 hours
How it was run: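 GI50 values come from four-parameter curve fits of luminescence data normalized to a zero baseline. Compound, in medium with 0.5% DMSO, was added one day after plating and left for 72 h before CellTiter-Glo 2.0 addition.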

T47D cells = experiment: Cellular Growth Inhibition Assay for T47D Cells (CellTiter-Glo); type: cell-based, human; conditions: 72 hours
Experimental: Exemplary compounds were tested for ability to inhibit the proliferation of T47D cells. T47D cells are a commercially available human breast cancer cell line.
T47D cells were purchased from American Type Cell Culture (ATCC Cat #HTB-133) and then seeded on poly-D-lysine coated, black clear-bottom 384-well plates at 3000/well in 25 μL Dulbecco's Modified Eagle Medium (DMEM) supplemented with 10% w/w Fetal bovine serum (FBS), 0.2 units/mL recombinant human insulin (Gibco Cat #12585014), and 1% w/w Pen-Strep. Pen-Strep is a commercially available mixture of penicillin G and streptomycin, which is used in mammalian cell culture media to prevent bacterial contamination. Dulbecco's Modified Eagle Medium (DMEM) supplemented with 10% w/w fetal bovine serum (FBS), 0.2 units/mL recombinant human insulin, and 1% w/w Pen-Strep is herein referred to as Treatment Medium. Following seeding of cells in the plates, the plates were spun at 300×g for 30 seconds, then equilibrated to room temperature for 30 minutes, and then deposited in a humidified tissue culture incubator maintained at 37° C. with 5% CO2.
At 24 hours after seeding of the cells, dilutions of test compound were prepared in DMSO and dissolved in Treatment Medium, to achieve a final DMSO concentration of 0.5% w/w, thereby providing the Test Compound Solution. A 25 μL aliquot of the Test Compound Solution was added to cells in the well plates. An equal volume of a solution containing DMSO and Treatment Medium was used as a negative control. Following treatment of cells with Test Compound Solution or said equal volume of a solution containing DMSO and Treatment Medium, the plates were spun at 300×g for 30 seconds, and then left in an incubator for 72 hours.
At the end of the treatment duration, cell viability was quantified with CellTiter-Glo 2.0 reagent (Promega Cat #G9243). For this purpose, plates were equilibrated to room temperature for 30 minutes, and then 25 μL of CellTiter-Glo 2.0 reagent was added to cells in the plate wells. Plates were then agitated on a shaker for two minutes at 500 rpm and subsequently incubated at room temperature for 10 minutes. Following incubation, the plates were spun at 3000×g for 30 seconds, then sealed with an optical adhesive cover, and luminescence readings were measured with an EnVision Plate Reader (Perkin Elmer).
Data was normalized using zero luminescence for baseline. A four-parameter non-linear regression curve fit was applied to dose-response data in GraphPad Prism data analysis software to determine the half-maximal growth inhibitory concentration (GI50) for each test compound.

SMILES	GI50 (VCaP cells; Homo sapiens)	GI50 (T47D cells; Homo sapiens)	GI50 (VCaP cells)	GI50 (T47D cells)	GI50 [1]	GI50 [2]
CCS(=O)(=O)Nc1ccc(Oc2cccc(N3CCN(CC4CCN(c5ncc(C(=O)N[C@H]6C(C)(C)[C@H](Oc7ccc(C#N)c(Cl)c7)C6(C)C)cn5)CC4)CC3)c2)c(-c2cn(C)c(=O)c3[nH]ccc23)c1 [Compound I-37]	< 500 nM	500 to 1500 nM			< 500 nM	< 500 nM
CC(C)c1ccc(Oc2cccc(CCOC3CCN(c4ncc(C(=O)N[C@H]5C(C)(C)[C@H](Oc6ccc(C#N)c(Cl)c6)C5(C)C)cn4)CC3)c2F)c(-c2cn(C)c(=O)c3[nH]ccc23)c1 [Compound I-148]			< 500 nM	500 to 1500 nM	< 500 nM	> 3000 nM
CCS(=O)(=O)Nc1ccc(Oc2cccc(OC3CN(c4ncc(C(=O)N[C@H]5C(C)(C)[C@H](Oc6ccc(C#N)c(Cl)c6)C5(C)C)cn4)C3)c2)c(-c2cn(C)c(=O)c3[nH]ccc23)c1 [Compound I-30]	< 500 nM	< 500 nM			< 500 nM	< 500 nM
CCS(=O)(=O)Nc1ccc(Oc2cccc(N(C)C3CN(c4ncc(C(=O)N[C@H]5C(C)(C)[C@H](Oc6ccc(C#N)c(Cl)c6)C5(C)C)cn4)C3)c2)c(-c2cn(C)c(=O)c3[nH]ccc23)c1 [Compound I-31]	< 500 nM	< 500 nM			500 to 1500 nM	< 500 nM
CC(C)c1ccc(Oc2cccc(OCCN3CCN(c4ncc(C(=O)N[C@H]5C(C)(C)[C@H](Oc6ccc(C#N)c(Cl)c6)C5(C)C)cn4)CC3)c2F)c(-c2cn(C)c(=O)c3[nH]ccc23)c1 [Compound I-179]			> 3000 nM	500 to 1500 nM	< 500 nM	> 3000 nM

Now from value to compound, other results behind:

GI50 (VCaP cells; Homo sapiens)	GI50 (T47D cells; Homo sapiens)	GI50 (VCaP cells)	GI50 (T47D cells)	SMILES	GI50 [1]	GI50 [2]
< 500 nM	< 500 nM			Cn1cc(-c2cc(C(C)(C)O)ccc2Oc2ccc(N3CC(CC4CN(c5cnc(C(=O)N[C@H]6C(C)(C)[C@H](Oc7ccc(C#N)c(Cl)c7)C6(C)C)nc5)C4)C3)cc2)c2cc[nH]c2c1=O [Compound I-323]	500 to 1500 nM	500 to 1500 nM
> 3000 nM	500 to 1500 nM			Cn1cc(-c2cc(C(C)(C)O)ccc2-n2cc(N3CC(CC4CCN(c5ncc(C(=O)NC6C(C)(C)C(Oc7ccc(C#N)c(Cl)c7)C6(C)C)cn5)CC4)C3)ccc2=O)c2cc[nH]c2c1=O (stereo not shown) [Compound I-344, N-[3-(3-chloro-4-cyano-phenoxy)-2,2,4,4-tetramethyl-cyclobutyl]-2-[4-[[1-[1-[4-(1-hydroxy-1-methyl-ethyl)-2-(6-methyl-7-oxo-1H-pyrrolo [2,3-c]pyridin-4-yl)phenyl]-6-oxo-3-pyridyl]azetidin-3-yl]methyl]-1-piperidyl]pyrimidine-5-carboxamide]	> 3000 nM	> 3000 nM
		> 3000 nM	< 500 nM	Cn1cc(-c2cc(C(C)(C)O)ccc2Oc2ccc(OC[C@@H]3CCCN(c4cnc(C(=O)N[C@H]5C(C)(C)[C@H](Oc6ccc(C#N)c(Cl)c6)C5(C)C)cn4)C3)cc2)c2cc[nH]c2c1=O [Compound I-340]	> 3000 nM	> 3000 nM
< 500 nM	< 500 nM			Cn1cc(-c2cc(C(C)(C)O)ccc2Oc2ccc(N3CC(CC4CCN(c5ncc(C(=O)N[C@H]6C(C)(C)[C@H](Oc7ccc(C#N)c(Cl)c7)C6(C)C)cn5)CC4)C3)nc2)c2cc[nH]c2c1=O [Compound I-333, N-[3-(3-chloro-4-cyano-phenoxy)-2,2,4,4-tetramethyl-cyclobutyl]-2-[4-[[1-[5-[4-(1-hydroxy-1-methyl-ethyl)-2-(6-methyl-7-oxo-1H-pyrrolo[2,3-c]pyridin-4-yl)phenoxy]-2-pyridyl]azetidin-3-yl]methyl]-1-piperidyl]pyrimidine-5-carboxamide]	< 500 nM	> 3000 nM
		< 500 nM	500 to 1500 nM	Cn1cc(-c2cc(C(C)(C)O)ccc2OC(CCCOC2CCN(c3ncc(C(=O)N[C@H]4C(C)(C)[C@H](Oc5ccc(C#N)c(Cl)c5)C4(C)C)cn3)CC2)C2CC2)c2cc[nH]c2c1=O (stereo partly shown) [Compound I-244]	< 500 nM	500 to 1500 nM
